According to US10729628B2, “Tyrosinase inhibitors” (Conopco, Inc., priority 2015, dated 2020):

Legend:
[1] = target: T1, human Tyrosinase (in the form of melanocytic extract) (Homo sapiens, UniProt P14679); assay: Tyrosinase assay by oxidation of DOPA, human tyrosinase (melanocytic extract); format: biochemical; details: for OD475 nm (HME) / inhibition at 10 µM / % Inhibition (HME) / inhibition at 100 µM / inhibition at 1000 µM: 37° C., 45 minutes; for OD475 nm (HME): background-corrected, uninhibited enzyme control 0.141; for inhibition at 10 µM / inhibition at 100 µM / inhibition at 1000 µM: read-out: % Inhibition (HME); for inhibit the activity of tyrosinase: summary in words, at least one of human or mushroom tyrosinase, inhibitor = colour inhibited by more than 10% of control
T1 construct: 2.5 mg/ml human melanocytic lysate OR; endogenous in cells; host or cells: human melanocytes (lysate/extract)
T1 sequence (P14679 19-529): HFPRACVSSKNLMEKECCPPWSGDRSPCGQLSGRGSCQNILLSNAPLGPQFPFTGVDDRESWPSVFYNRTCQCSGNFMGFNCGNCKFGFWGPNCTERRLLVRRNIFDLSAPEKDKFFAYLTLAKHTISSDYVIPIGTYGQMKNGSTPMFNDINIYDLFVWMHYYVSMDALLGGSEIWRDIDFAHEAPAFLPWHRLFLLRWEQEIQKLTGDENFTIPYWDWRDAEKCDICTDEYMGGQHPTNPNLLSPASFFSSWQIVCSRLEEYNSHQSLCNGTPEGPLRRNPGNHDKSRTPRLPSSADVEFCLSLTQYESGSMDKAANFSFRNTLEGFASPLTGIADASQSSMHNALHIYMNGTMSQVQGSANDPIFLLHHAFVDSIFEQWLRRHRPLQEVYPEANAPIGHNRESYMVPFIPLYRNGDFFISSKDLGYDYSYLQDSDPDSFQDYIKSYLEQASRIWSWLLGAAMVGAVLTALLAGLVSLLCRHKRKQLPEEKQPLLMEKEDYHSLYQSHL
Experimental: The (tyrosinase) inhibitory activity of a, b, c and d was measured by oxidation of DOPA. Each crown ether was tested against human Tyrosinase (in the form of melanocytic extract) and commercial (Worthington, USA) mushroom tyrosinase (MT), using the DOPA oxidation assay. Details of the assay mix are included in table 2. […] Assay examined the change (Optical Density) OD475 nm at 37° C., after 45 minutes reaction in a standard 96-well plate. All ON475 nm were corrected by subtracting the background OD475 nm value of the negative control sample lacking enzyme in the assay mix. […] The background effect of 10% DMSO on tyrosinase activity was also examined for calculation purposes (i.e. the ‘U’ sample).

mushroom tyrosinase (MT) = assay: Tyrosinase assay by oxidation of DOPA, mushroom tyrosinase; format: biochemical; details: 37° C., 45 minutes; for OD475 nm (MT): background-corrected, uninhibited enzyme control 0.17
Experimental: The (tyrosinase) inhibitory activity of a, b, c and d was measured by oxidation of DOPA. Each crown ether was tested against human Tyrosinase (in the form of melanocytic extract) and commercial (Worthington, USA) mushroom tyrosinase (MT), using the DOPA oxidation assay. Details of the assay mix are included in table 2. [table] Assay examined the change (Optical Density) OD475 nm at 37° C., after 45 minutes reaction in a standard 96-well plate. All ON475 nm were corrected by subtracting the background OD475 nm value of the negative control sample lacking enzyme in the assay mix. […] The background effect of 10% DMSO on tyrosinase activity was also examined for calculation purposes (i.e. the ‘U’ sample).

Row | SMILES | OD475 nm (HME) ([1]; 0.01 mM test compound) | inhibition at 10 µM ([1]; 0.01 mM test compound) [%] | % Inhibition (HME) ([1]; 1 mM test compound) | OD475 nm (HME) ([1]; 1 mM test compound) | inhibit the activity of tyrosinase [1] | % Inhibition (MT) (mushroom tyrosinase (MT); 0.01 mM test compound) [%] | OD475 nm (MT) (mushroom tyrosinase (MT); 0.01 mM test compound) | % Inhibition (MT) (mushroom tyrosinase (MT); 1 mM test compound) [%] | OD475 nm (MT) (mushroom tyrosinase (MT); 1 mM test compound) | OD475 nm (HME) ([1]; 0.1 mM test compound) | inhibition at 100 µM ([1]; 0.1 mM test compound) [%] | inhibition at 1000 µM ([1]; 1 mM test compound) [%] | % Inhibition (MT) (mushroom tyrosinase (MT); 0.1 mM test compound) [%] | OD475 nm (MT) (mushroom tyrosinase (MT); 0.1 mM test compound) | % Inhibition (MT) (mushroom tyrosinase (MT); 0.25 mM test compound) [%] | OD475 nm (MT) (mushroom tyrosinase (MT); 0.25 mM test compound) | % Inhibition (MT) (mushroom tyrosinase (MT); 0.5 mM test compound) [%] | OD475 nm (MT) (mushroom tyrosinase (MT); 0.5 mM test compound) | % Inhibition (HME) ([1]; 0.01 mM test compound)
1 | O=C(NC1CCCCC1)N(C(=O)c1ccc2c(c1)OCCOCCOCCO2)C1CCCCC1 [Compound b] | 0.125 | 12 | No | 0.162 | inhibit the activity of at least one of human or mushroom tyrosinase | 6 | 0.160 | 28 | 0.122 |  |  |  |  |  |  |  |  |  | 
2 | O=C(O)c1ccc2c(c1)OCCOCCOCCO2 [Compound a] |  |  |  | 0.029 | inhibit the activity of at least one of human or mushroom tyrosinase |  |  | 60 | 0.068 | 0.126 | 11 | 79 | 25 | 0.128 |  |  |  |  | 
3 | O=C(O)c1ccc2c(c1)OCCOCCOCCOc1ccc(C(=O)O)cc1OCCOCCOCCO2 [Compound c] | 0.092 | 35 |  | 0.027 | inhibit the activity of at least one of human or mushroom tyrosinase | 9 | 0.156 | 49 | 0.087 | 0.094 | 33 | 81 | 5 | 0.162 |  |  |  |  | 
4 | O=c1cc(CO)occ1O [Kojic acid, reference compound] |  |  |  |  |  |  |  |  |  |  |  |  | 23 | 0.131 | 35 | 0.111 | 51 | 0.084 | 
5 | COC(=O)C(C)(C)NC(=O)C(CC(C)C)NC(=O)C(C)NC(=O)c1ccc2c(c1)OCCOCCOCCOc1ccc(C(=O)NC(C)C(=O)NC(CC(C)C)C(=O)NC(C)(C)C(=O)OC)cc1OCCOCCOCCO2 (centres unmarked) [Compound d] | 0.144 |  |  | 0.110 | inhibit the activity of at least one of human or mushroom tyrosinase | 19 | 0.137 | 69 | 0.053 | 0.134 | 5 | 23 | 58 | 0.071 |  |  |  |  | No
